From patent publication US20020055094A1 (priority 1996, published 2002) come the findings set out here.

Test [1] has as its system influenza A NWS/Tokyo (H1N2). The class given is binding.
The target of test [2] is whole virus influenza neuraminidase, influenza B strain B/Vic/02/87 (Influenza B virus, UniProt P27907). It counts as biochemical. To be noted: read-out: Binding Constants (M) / inhibition constants (IC50), B/Vic/02/87.
In test [3] the target is whole virus influenza neuraminidase, influenza A strain NWS/Tokyo (Influenza A virus, UniProt P06820). The test can be described thus: biochemical.

Read-outs that look alike come from different tables or passages of the source.

whole virus influenza neuraminidase, influenza A strain NWS/Tokyo, sequence (P06820 whole entry, looked up): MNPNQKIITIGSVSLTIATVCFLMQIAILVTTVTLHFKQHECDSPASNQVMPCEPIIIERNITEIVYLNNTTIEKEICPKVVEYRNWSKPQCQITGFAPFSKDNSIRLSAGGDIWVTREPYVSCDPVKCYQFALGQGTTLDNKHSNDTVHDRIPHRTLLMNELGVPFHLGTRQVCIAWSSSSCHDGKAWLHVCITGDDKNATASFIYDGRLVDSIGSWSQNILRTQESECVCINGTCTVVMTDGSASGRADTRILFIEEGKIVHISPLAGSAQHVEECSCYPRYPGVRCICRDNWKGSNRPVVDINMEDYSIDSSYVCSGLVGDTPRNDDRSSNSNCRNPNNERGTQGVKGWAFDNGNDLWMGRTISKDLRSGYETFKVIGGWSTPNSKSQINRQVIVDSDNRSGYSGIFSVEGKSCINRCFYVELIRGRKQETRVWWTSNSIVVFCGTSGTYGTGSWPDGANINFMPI
whole virus influenza neuraminidase, influenza B strain B/Vic/02/87, sequence (P27907 whole entry, looked up): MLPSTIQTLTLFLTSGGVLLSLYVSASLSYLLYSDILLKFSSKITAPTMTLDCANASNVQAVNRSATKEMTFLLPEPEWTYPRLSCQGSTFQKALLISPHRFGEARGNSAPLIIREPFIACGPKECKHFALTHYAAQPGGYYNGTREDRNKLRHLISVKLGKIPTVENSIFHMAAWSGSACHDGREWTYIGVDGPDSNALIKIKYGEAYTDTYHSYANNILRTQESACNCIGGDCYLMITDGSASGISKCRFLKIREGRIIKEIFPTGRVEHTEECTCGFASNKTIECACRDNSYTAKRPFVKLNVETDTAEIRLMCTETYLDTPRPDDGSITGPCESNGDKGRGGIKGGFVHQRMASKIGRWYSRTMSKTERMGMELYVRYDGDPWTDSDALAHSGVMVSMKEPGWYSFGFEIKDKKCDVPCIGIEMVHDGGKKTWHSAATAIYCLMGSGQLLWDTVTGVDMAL

As to “5-acetamido-7-{6′-[6″-(6″′-biotinylaminocaproyl) -tri-amingcaroyl]-aminohexyl}-carbamoyloxy-4-guanidino -2,3,4,5-tetradeoxy-D-glycero-D-gaacto-non-2-enopyranosonic acid [Compound No. 26]”, in test [1], the “compound concentration giving the best results” value was 0.1 µM and the “virus amount readily detected” value is 2.5×10^5 pfu/well. Moreover, in test [2], the IC50 was 4e-08 M.

The compound `CC(=O)N[C@H]1[C@H]([C@H](OC(=O)NCCCCCCNC(=O)NCCCCCCN)[C@H](O)CO)OC(C(=O)O)=C[C@@H]1NC(=N)N` [Compound No. 8, 5-acetamido-7-[6′-(6″-aminohexylureido)-hexyl]-carbamoyloxy-4-guanidino-2,3,4,5-tetradeoxy-D-glycero-D-galacto-non-2-enopyranosonic acid] registered an IC50 in test [3] of 4e-08 M.

As for `CC(=O)N[C@H]1[C@H]([C@H](OC(=O)NCCCCCCNC(=O)CNC(=O)CNC(=O)CNC(=O)CCCC[C@@H]2SC[C@@H]3NC(=O)N[C@@H]32)[C@H](O)CO)OC(C(=O)O)=C[C@@H]1NC(=N)N` [Compound No. 21, 5-acetamido-7-(6′-biotinylamino-tricrlycinamido-hexy) -carbamoyloxy-4-guanidino-2,3,4,5-tetradeoxy-D-glycerQ-D-galacto-non-2-enopyranosonic acid], the IC50 in test [3] is 4e-08 M.

In turn, `CC(=O)N[C@H]1[C@H]([C@H](OC(=O)NCCCCCCN)[C@H](O)CO)OC(C(=O)O)=C[C@@H]1NC(=N)N` [compound 11, 5-acetamido-7-(6′-aminohexyl)-carbamoyloxy-4-guanidino-2,3,4,5-tetradeoxy-D-glycero-D-galacto-non-2-enopyranosonic acid] yielded an IC50 in test [3] of 2e-08 M.

As to `CC(=O)N[C@H]1[C@H]([C@H](OC(=O)NCCCCCCNC(=O)OC(C)(C)C)[C@H](O)CO)OC(C(=O)O)=C[C@@H]1NC(=N)N` [compound 13, 5-acetamido-7-(6′-tert-butoxycarbonylaminohexyl)-carbamoyloxy-4-guanidino-2,3,4,5-tetradeoxy-D-glycero-D-galacto-non-2-enopyranosonic acid], the IC50 in test [3] worked out at 2e-08 M.

On to `CC(=O)N[C@H]1[C@H]([C@H](OC(=O)NCCOCCOCCN)[C@H](O)CO)OC(C(=O)O)=C[C@@H]1NC(=N)N` [compound 17, 5-acetamido-7-{2-[2-(2-aminoethoxy)-ethoxy]-ethyl}-carbamoyloxy-4-guanidino-2,3,4,5-tetradeoxy-D-glycero-D-galacto-non-2-enopyranosonic acid], for which the IC50 in test [3] was found to be 2e-08 M.

For the compound `CC(=O)N[C@H]1[C@H]([C@H](OC(=O)NCCCCCCNC(=O)CCCC[C@@H]2SC[C@@H]3NC(=O)N[C@@H]32)[C@H](O)CO)OC(C(=O)O)=C[C@@H]1NC(=N)N` [compound 19, 5-acetamindo-7-(6′-biotinylaminohexyl),carbamoyloxy-4-guanidino-2,3,4,5-tetradeoxy-D-crlvero-D-galacto-non-2-enopyranosonic acid], in test [3], the IC50 stood at 1e-08 M.

In test [3], `CC(=O)N[C@H]1[C@H]([C@H](OC(=O)NCCCCCCNC(=O)NCCCCCCNC(=O)OC(C)(C)C)[C@H](O)CO)OC(C(=O)O)=C[C@@H]1N` [compound 20, 5-acetamido-4-amino-7-[6′-(6″-tert-butoxycarbonyl-aminohexylureido) -hexyl]-carbamoyloxy-2,3,4,5-tetradeoxy-D-glycero-D-galacto-non-2-enopyanosonic acid] registered an IC50 of 1e-05 M.

Consider `CC(=O)N[C@H]1[C@H]([C@H](OC(=O)NCCCCCCNC(=O)CCCCCCCCCCCNC(=O)CCCC[C@@H]2SC[C@@H]3NC(=O)N[C@@H]32)[C@H](O)CO)OC(C(=O)O)=C[C@@H]1NC(=N)N` [compound 22, 5-Acetamido-7-(6′-biotinylamino-dodecanoyl-aminohexyl) -carbamoyl-4-guanidino-2,3,4,5-tetradeoxy-D-glycero-D-galacto-non-2-enopyranosonic acid], for which the IC50 in test [3] was found to be 3e-08 M.

As to `CC(=O)N[C@H]1[C@H]([C@H](OC(=O)NCCCCCCNC(=O)CCCCCNC(=O)CCCC[C@@H]2SC[C@@H]3NC(=O)N[C@@H]32)[C@H](O)CO)OC(C(=O)O)=C[C@@H]1NC(=N)N` [compound 23, 5-Acetamido-7-(6′-biotinylamino-caproyl-aminohexyl) -carbamoyl-4-guanidino-2,3,4,5-tetradeoxy-D-glycero-D-galacto-non-enopyranosonic acid], in test [3], the IC50 came to 2e-08 M.

On to `CC(=O)N[C@H]1[C@H]([C@H](OC(=O)NCCCCCCNC(=O)CCCCCNC(=O)CCCCCNC(=O)CCCCCNC(=O)CCCCCN)[C@H](O)CO)OC(C(=O)O)=C[C@@H]1NC(=N)N` [compound 25, 5-acetamido-7-(6′-(6″-(6″′-aminocaproyl) -triaminocaproyl) -aminohexyl) -carbamoyloxy-4-guanidino-2,3,4,5-tetradeoxy-D-glycero-D-galacto-non-2-enopyranosonic acid], for which, in test [3], the IC50 turned out to be 5e-08 M.

With DANA [reference compound], the IC50 in test [3] (read-out: Binding Constants (M) / inhibition constants (IC50), NWS/Tokyo) came out at 4e-05 M.
